Measured values as given in ChEMBL document CHEMBL4382204 (Eur J Med Chem, 2018).
The source made the active and inactive calls. The calls are words filed in the database; no cut-off is given here.

Legend:
[1] = Apparent clearance during terminal phase in Sprague-Dawley rat at 1 mg/kg, iv by LC-MS/MS analysis; format: ADME, organism-based; conditions: in vivo
[2] = AUC (0 to t) in mouse at 1 mg/kg, iv by LC-MS/MS analysis; format: ADME, organism-based; conditions: in vivo
Bcr/Abl fusion protein [3] = target: T1, Bcr/Abl fusion protein (Homo sapiens, UniProt P00519, T315I); experiment: Inhibition of BCR/ABL T315I mutant (unknown origin) expressed in mouse BAF3 cells assessed as inhibition of STAT5 phosphorylation after 1 hr by immunoblotting analysis; format: cell-based
[4] = target: T2, Tyrosine-protein kinase ABL1 (Homo sapiens, UniProt P00519); experiment: Inhibition of inactive wild type His-tagged ABL (229 to 500 residues) (unknown origin) expressed in baculovirus infected sf9 cells assessed as reduction in autophosphorylation preincubated for 60 mins followed by ATP addition measured after 8 hrs by ADP-Glo assay
[5] = AUC (0 to t) in Sprague-Dawley rat at 10 mg/kg, po by LC-MS/MS analysis; format: ADME, organism-based; conditions: in vivo
[6] = tested on: Bcr/Abl fusion protein (Homo sapiens), P00519+P11274 [Y253F]; conditions: BaF3
[7] = Toxicity in nu/nu mouse allografted with mouse BAF3 cells expressing BCR/ABL T315I mutant assessed as effect on body weight at 25 to 50 mg/kg, po administered daily via gavage for 14 days; format: organism-based; conditions: in vivo, 336 h
[8] = Selectivity ratio of GI50 for mouse BAF3 cells to GI50 for BCR/ABL T315I mutant (unknown origin) transfected in mouse BAF3 cells
[9] = tested on: Bcr/Abl fusion protein (Homo sapiens), P00519+P11274 [F317L]; conditions: BaF3
[10] = Apparent clearance during terminal phase in Sprague-Dawley rat at 10 mg/kg, po by LC-MS/MS analysis; format: ADME, organism-based; conditions: in vivo, read-out: CLz/F (converted)
[11] = Half life in Sprague-Dawley rat at 1 mg/kg, iv by LC-MS/MS analysis; format: ADME, organism-based; conditions: in vivo
[12] = target: T2, Tyrosine-protein kinase ABL1; conditions: BaF3
Description: Inhibition of wild type C-terminal FLAG-tagged human TEL fused ABL (unknown origin) transfected in mouse BAF3 cells assessed as growth inhibition after 72 hrs by CCK8 assay

[13] = Antiproliferative activity in mouse BAF3 cells after 72 hrs by CCK8 assay; format: cell-based
[14] = target: Vascular endothelial growth factor receptor 2 (Homo sapiens) (UniProt P35968); experiment: Inhibition of wild type C-terminal FLAG-tagged human TEL fused VEGFR2 (unknown origin) transfected in mouse BAF3 cells assessed as growth inhibition after 72 hrs by CCK8 assay; format: cell-based
K562 [15] = experiment: Induction of apoptosis in human K562 cells assessed as cleaved PARP level up to 0.3 uM after 24 hrs by immunoblotting analysis; format: functional, cell-based
[16] = Oral bioavailability in mouse at 10 mg/kg by LC-MS/MS analysis; format: ADME, organism-based; conditions: in vivo
[17] = AUC (0 to t) in Sprague-Dawley rat at 1 mg/kg, iv by LC-MS/MS analysis; format: ADME, organism-based; conditions: in vivo
Bcr/Abl fusion protein [18] = target: T1, Bcr/Abl fusion protein; experiment: Inhibition of BCR/ABL T315I mutant (unknown origin) expressed in mouse BAF3 cells assessed as inhibition of CrkL phosphorylation after 1 hr by immunoblotting analysis; format: cell-based
[19] = Apparent volume of distribution during terminal phase in Sprague-Dawley rat at 10 mg/kg, po by LC-MS/MS analysis; format: ADME, organism-based; conditions: in vivo
[20] = target: T3, Bcr/Abl fusion protein (Homo sapiens) (UniProt P00519+P11274); experiment: Inhibition of BCR/ABL in human KU812 cells assessed as inhibition of STAT5 phosphorylation up to 0.3 uM after 1 hr by immunoblotting analysis; format: cell-based
[21] = MRT (0 to t) in mouse at 10 mg/kg, po by LC-MS/MS analysis; format: ADME, organism-based; conditions: in vivo
KU812 cell line [22] = experiment: Induction of apoptosis in human KU812 cells assessed as cleaved PARP level up to 0.3 uM after 24 hrs by immunoblotting analysis; format: functional, cell-based
[23] = target: Fibroblast growth factor receptor 4 (Homo sapiens) (UniProt P22455); experiment: Inhibition of wild type C-terminal FLAG-tagged human TEL fused FGFR4 (unknown origin) transfected in mouse BAF3 cells assessed as growth inhibition after 72 hrs by CCK8 assay; format: cell-based
MEG-01 = experiment: Induction of apoptosis in human MEG01 cells assessed as cleaved PARP level up to 0.3 uM after 24 hrs by immunoblotting analysis; format: functional, cell-based
KU812 cell line [24] = experiment: Cell cycle arrest in human KU812 cells assessed as accumulation at G0/G1 phase up to 0.3 uM after 24 hrs by propidium iodide/RNase staining based flow cytometric analysis; format: functional
BaF3 [25] = experiment: Antitumor activity against mouse BAF3 cells expressing BCR/ABL T315I mutant allografted in nu/nu mouse assessed as tumor growth inhibition at 50 mg/kg, po administered via gavage for 14 days relative to control; format: functional; conditions: 336 h, read-out: TGI
[26] = AUC (0 to infinity) in mouse at 1 mg/kg, iv by LC-MS/MS analysis; format: ADME, organism-based; parameters: dose 1 mg/kg, route intravenous, time infinity; conditions: in vivo
[27] = Apparent volume of distribution during terminal phase in Sprague-Dawley rat at 1 mg/kg, iv by LC-MS/MS analysis; format: ADME, organism-based; conditions: in vivo, read-out: Vz
[28] = AUC (0 to t) in mouse at 10 mg/kg, po by LC-MS/MS analysis; format: ADME, organism-based; conditions: in vivo
[29] = target: T3, Bcr/Abl fusion protein (Homo sapiens); experiment: (§1) Inhibition of BCR/ABL in human K562 cells assessed as inhibition of BCR/ABL autophosphorylation at Y245 site after 1 hr by immunoblotting analysis; format: cell-based
Bcr/Abl fusion protein [30] = target: Bcr/Abl fusion protein (Homo sapiens, UniProt P00519); experiment: as §1; format: cell-based
[31] = target: T3, Bcr/Abl fusion protein (Homo sapiens); experiment: Inhibition of BCR/ABL in human K562 cells assessed as inhibition of CrkL phosphorylation up to 0.3 uM after 1 hr by immunoblotting analysis; format: cell-based
K562 [32] = experiment: Induction of apoptosis in human K562 cells assessed as cleaved caspase-3 level up to 0.3 uM after 24 hrs by immunoblotting analysis; format: functional, cell-based
[33] = Tmax in Sprague-Dawley rat at 10 mg/kg, po by LC-MS/MS analysis; format: ADME, organism-based; conditions: in vivo
[34] = Cmax in Sprague-Dawley rat at 1 mg/kg, iv by LC-MS/MS analysis; format: ADME, organism-based; parameters: dose 1 mg/kg, route intravenous; conditions: in vivo
[35] = target: T3, Bcr/Abl fusion protein (Homo sapiens); experiment: Inhibition of BCR/ABL in human KU812 cells assessed as inhibition of CrkL phosphorylation up to 0.3 uM after 1 hr by immunoblotting analysis; format: cell-based
KU812 cell line [36] = experiment: Antiproliferative activity in human KU812 cells after 72 hrs by CCK8 assay; format: functional; conditions: KU812, 72 h
[37] = AUC (0 to infinity) in mouse at 10 mg/kg, po by LC-MS/MS analysis; format: ADME, organism-based; parameters: dose 10 mg/kg, route oral, time infinity; conditions: in vivo
BaF3 [38] = experiment: Induction of apoptosis in mouse BAF3 cells expressing BCR/ABL T315I mutant assessed as cleaved PARP level up to 0.3 uM after 24 hrs by immunoblotting analysis; format: functional, cell-based
[39] = Antiproliferative activity in CHO cells after 72 hrs by CCK8 assay; format: cell-based, Cricetulus griseus; conditions: chinese hamster

Fibroblast growth factor receptor 4 (Homo sapiens), sequence (P22455 22-802 limits assumed): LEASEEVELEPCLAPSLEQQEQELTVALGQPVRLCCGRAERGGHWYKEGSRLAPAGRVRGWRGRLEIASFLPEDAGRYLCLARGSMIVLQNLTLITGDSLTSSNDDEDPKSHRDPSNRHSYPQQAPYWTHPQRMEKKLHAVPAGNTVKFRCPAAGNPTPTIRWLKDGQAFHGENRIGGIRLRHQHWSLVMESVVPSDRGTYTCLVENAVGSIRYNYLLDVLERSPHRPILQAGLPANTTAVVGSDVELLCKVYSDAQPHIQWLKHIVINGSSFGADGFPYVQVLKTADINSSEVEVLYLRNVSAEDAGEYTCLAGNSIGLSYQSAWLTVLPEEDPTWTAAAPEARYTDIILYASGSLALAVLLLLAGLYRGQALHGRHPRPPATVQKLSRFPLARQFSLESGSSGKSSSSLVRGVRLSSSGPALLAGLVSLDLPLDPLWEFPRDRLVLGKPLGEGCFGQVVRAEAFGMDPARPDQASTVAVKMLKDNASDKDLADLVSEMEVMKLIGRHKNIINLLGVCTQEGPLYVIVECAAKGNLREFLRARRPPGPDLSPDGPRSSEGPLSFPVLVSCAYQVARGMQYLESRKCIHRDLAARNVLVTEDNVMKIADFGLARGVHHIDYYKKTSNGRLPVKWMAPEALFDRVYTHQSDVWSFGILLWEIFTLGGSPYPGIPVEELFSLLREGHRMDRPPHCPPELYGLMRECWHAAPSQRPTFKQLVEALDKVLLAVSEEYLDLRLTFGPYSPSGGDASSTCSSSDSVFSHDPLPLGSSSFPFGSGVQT
Vascular endothelial growth factor receptor 2 (Homo sapiens), sequence (P35968 whole entry, the tested form may be a part): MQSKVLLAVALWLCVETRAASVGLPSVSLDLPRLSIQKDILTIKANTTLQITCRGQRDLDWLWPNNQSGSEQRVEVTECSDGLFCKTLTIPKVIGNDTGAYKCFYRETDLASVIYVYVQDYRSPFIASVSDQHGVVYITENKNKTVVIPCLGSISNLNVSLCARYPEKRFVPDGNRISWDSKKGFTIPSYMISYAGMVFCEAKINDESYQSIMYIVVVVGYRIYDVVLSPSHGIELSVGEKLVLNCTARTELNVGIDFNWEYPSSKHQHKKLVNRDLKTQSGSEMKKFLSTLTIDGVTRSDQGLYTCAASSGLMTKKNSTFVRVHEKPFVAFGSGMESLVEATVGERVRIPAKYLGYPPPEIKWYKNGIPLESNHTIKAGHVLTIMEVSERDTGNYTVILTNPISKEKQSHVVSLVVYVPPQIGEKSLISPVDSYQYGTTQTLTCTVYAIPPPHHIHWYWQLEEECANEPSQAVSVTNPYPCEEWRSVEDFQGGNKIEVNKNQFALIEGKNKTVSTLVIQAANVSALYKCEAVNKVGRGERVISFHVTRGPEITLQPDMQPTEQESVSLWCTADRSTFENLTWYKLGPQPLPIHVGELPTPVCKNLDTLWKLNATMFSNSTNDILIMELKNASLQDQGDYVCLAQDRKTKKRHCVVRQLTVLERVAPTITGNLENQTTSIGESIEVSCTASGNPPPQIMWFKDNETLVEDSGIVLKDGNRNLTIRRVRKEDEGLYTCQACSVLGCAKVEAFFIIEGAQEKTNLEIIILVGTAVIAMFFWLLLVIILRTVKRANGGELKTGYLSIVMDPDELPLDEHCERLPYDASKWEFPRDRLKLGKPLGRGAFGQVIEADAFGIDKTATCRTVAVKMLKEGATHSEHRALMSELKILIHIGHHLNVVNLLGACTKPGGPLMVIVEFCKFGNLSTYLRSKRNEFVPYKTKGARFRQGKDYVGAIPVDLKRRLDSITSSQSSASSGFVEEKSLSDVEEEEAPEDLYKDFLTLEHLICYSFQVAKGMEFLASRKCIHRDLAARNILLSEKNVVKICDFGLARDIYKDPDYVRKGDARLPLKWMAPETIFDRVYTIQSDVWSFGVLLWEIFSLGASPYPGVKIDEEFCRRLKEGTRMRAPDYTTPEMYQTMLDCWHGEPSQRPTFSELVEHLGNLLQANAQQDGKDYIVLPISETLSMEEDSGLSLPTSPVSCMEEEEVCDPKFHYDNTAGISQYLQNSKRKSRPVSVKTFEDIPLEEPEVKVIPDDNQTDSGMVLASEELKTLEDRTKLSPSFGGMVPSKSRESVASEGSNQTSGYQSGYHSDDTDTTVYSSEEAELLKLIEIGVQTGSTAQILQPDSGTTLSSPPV

With `CN1CCN(Cc2ccc(NC(=O)CCSc3ccc4c(/C=C/c5ccccn5)n[nH]c4c3)cc2C(F)(F)F)CC1` the CLz/F [1] was 85 mL/min/kg, the AUC(0-t) [2] was 148 ng·h/mL and the EC50 (Bcr/Abl fusion protein [3]) was less than 10 nM. For the same molecule, the IC50 [4] was 2 nM, the AUC(0-t) [5] was 210 ng·h/mL and the GI50 [6] was 180 nM. For the same molecule, the Activity [7] was “Non-Toxic”, the RatioGI50 [8] was 400 and the GI50 [9] was 18 nM. For the same molecule, the CL/F [10] was 633 mL/min/kg, the half-life [11] was 2.3 h and the GI50 [12] was less than 1 nM. The GI50 at 72 h [13] was 2480 nM, the GI50 [14] was 2 nM and the Activity (K562 [15]) was “Active”. The bioavailability [16] was 14.4%, the AUC(0-t) [17] was 192 ng·h/mL and the EC50 (Bcr/Abl fusion protein [18]) was less than 10 nM. For the same molecule, the Vz [19] was 139.1 L/kg, the inhibition [20] was “Active” and the MRT last [21] was 3.3 h. For the same molecule, the Activity (KU812 cell line [22]) was “Active”, the GI50 [23] was 75 nM and the Activity (MEG-01) was “Active”. The Activity (KU812 cell line [24]) was “Active”, the inhibition in vivo at 50 mg/kg (BaF3 [25]) was 52% and the AUC(0-inf) [26] was 160 ng·h/mL. The Vd [27] was 17.7 L/kg, the AUC(0-t) [28] was 225 ng·h/mL and the inhibition [29] was “Dose-dependent effect”. For the same molecule, the EC50 (Bcr/Abl fusion protein [30]) was less than 10 nM, the inhibition [31] was “Active” and the Activity (K562 [32]) was “Active”. For the same molecule, the Tmax [33] was 3.3 h, the Cmax [34] was 1270 ng/mL and the inhibition [35] was “Active”. For the same molecule, the GI50 (KU812 cell line [36]) was 3 nM, the AUC(0-inf) [37] was 230 ng·h/mL and the Activity (BaF3 [38]) was “Active”. It also gave a GI50 at 72 h [39] of 1120 nM.
